Structures can show the parent of a compound that is named as a salt.
Assays:
[1] = target: menin/MLL (terbium chelate-labeled menin, FITC-MBM1 peptide) (Homo sapiens (Human), UniProt O00255); experiment: Menin/MLL homogenous time-resolved fluorescence (HTRF) assay; type: binding; details: HTRF-30 min incubation IC50, 30 min incubation;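 also: IC50 from percent inhibition of HTRF signal, normalized between wells without competitor and wells with a saturating competitor that displaces FITC-MBM1 from His-tagged menin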
Chain of menin/MLL (terbium chelate-labeled menin, FITC-MBM1 peptide) (O00255 other isoform, or with tags, fused parts or gaps): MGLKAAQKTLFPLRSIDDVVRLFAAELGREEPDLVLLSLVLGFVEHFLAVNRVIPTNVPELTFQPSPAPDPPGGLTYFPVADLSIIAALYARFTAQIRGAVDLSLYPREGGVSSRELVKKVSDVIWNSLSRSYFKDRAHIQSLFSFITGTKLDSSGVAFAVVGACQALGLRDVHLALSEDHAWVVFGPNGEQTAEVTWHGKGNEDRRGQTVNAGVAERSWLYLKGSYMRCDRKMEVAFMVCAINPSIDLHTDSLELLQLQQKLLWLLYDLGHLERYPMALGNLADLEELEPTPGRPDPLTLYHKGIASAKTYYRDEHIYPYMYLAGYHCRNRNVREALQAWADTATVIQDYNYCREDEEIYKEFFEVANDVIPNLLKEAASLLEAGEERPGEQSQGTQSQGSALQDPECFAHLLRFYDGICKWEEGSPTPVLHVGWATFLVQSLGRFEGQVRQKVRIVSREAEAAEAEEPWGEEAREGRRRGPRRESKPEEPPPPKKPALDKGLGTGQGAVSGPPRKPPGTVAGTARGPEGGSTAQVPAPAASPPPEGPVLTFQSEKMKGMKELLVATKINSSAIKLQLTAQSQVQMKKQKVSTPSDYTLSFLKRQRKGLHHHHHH

MOLM14 cells = experiment: Proliferation assay (spheroid growth, 8 days), MOLM14; type: cell-based, human; details: Homo sapiens, MOLM-14, […], MOLM14, 8 days; read-out: spheroid assay_OneTime MOLM14 IC50;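 also: spheroid size read as confluence by live-cell imaging, compounds added at a range of concentrations with 0.3% DMSO, DMSO-treated wells = 0%, highest reference dose = low control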
KO-52 cells = experiment: Proliferation assay (spheroid growth, 8 days), KO-52 control cell line; type: cell-based, human; details: Homo sapiens, […], read-out: spheroid assay_OneTime KO-52 IC50
Outline: (§1)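 Cells were seeded at 200 (MOLM14, OCI-AML3) or 300 (KO-52) per well in ultra-low attachment round-bottom plates with compounds at several concentrations, 0.3% DMSO, and grown 8 days at 37° C. Spheroid confluence was imaged on day 8; IC50 came from a variable-slope fit normalized to DMSO and high-dose reference compound.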

MEIS1 mRNA = MEIS1 mRNA expression assay (Quantigene Singleplex) in MOLM14 cells; type: cell-based, human; details: Homo sapiens, MOLM-14, 48 h, 48 hours incubation;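 also: MEIS1 transcript levels read by probe hybridization and normalized to RPL28 mRNA, with IC50 fitted to fold changes across a rising compound concentration series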
OCI-AML3 cells = experiment: Proliferation assay (spheroid growth, 8 days), OCI-AML3; type: cell-based, human; details: Homo sapiens, OCI-AML-3, […], OCI-AML3, 8 days
Outline: as §1

Row | Compound | IC50 [1] [nM] | IC50 (MOLM14 cells) [nM] | IC50 (KO-52 cells) [nM] | IC50 (MEIS1 mRNA) [nM] | IC50 (OCI-AML3 cells) [nM]
1 | CCN(C(=O)c1cc(F)ccc1Oc1nncnc1N1CCC2(C1)CN(C(CCCNCC(C)(C)OC)C(C)C)C2)C(C)C (stereo not drawn) [Compound 69, N-ethyl-5-fluoro-N-isopropyl-2-((5-(2-(6-((2-methoxy-2-methylpropyl)amino)-2-methylhexan-3-yl)-2,6-diazaspiro[3.4]octan-6-yl)-1,2,4-triazin-6-yl)oxy)benzamide] | 0.099 | 20 | 7180 | 16 | 87
2 | CC(C)C(CCCN(C)C)N1CC2(CCN(c3ccnnc3Oc3ccc(F)cc3C(=O)N(C(C)C)C(C)C)C2)C1 (stereo not drawn) [Compound 74, 2-((4-(2-(6-(dimethylamino)-2-methylhexan-3-yl)-2,6-diazaspiro[3.4]octan-6-yl)pyridazin-3-yl)oxy)-5-fluoro-N,N-diisopropylbenzamide] | 0.51 | 140 | 10600 | 260 | 1290
3 | CCN(C(=O)c1cc(F)ccc1Oc1nncnc1N1CCC2(C1)CN([C@H](CCCNCC(C)(C)OC)C(C)C)C2)C(C)C [Compound 135, (R)-N-ethyl-5-fluoro-N-isopropyl-2-((5-(2-(6-((2-methoxy-2-methylpropyl)amino)-2-methylhexan-3-yl)-2,6-diazaspiro[3.4]octan-6-yl)-1,2,4-triazin-6-yl)oxy)benzamide fumarate] | 0.057 | 13 | 9690 | 16 | 230
4 | CCN(C(=O)c1cc(F)ccc1Oc1nncnc1N1CCC2(C1)CN([C@H](CCCN(C)CC(C)(C)OC)C(C)C)C2)C(C)C [Compound 137, (R)-N-ethyl-5-fluoro-N-isopropyl-2-((5-(2-(6-((2-methoxy-2-methylpropyl)(methyl)amino)-2-methylhexan-3-yl)-2,6-diazaspiro[3.4]octan-6-yl)-1,2,4-triazin-6-yl)oxy)benzamide fumarate] | 0.18 | 45 | 7290 | 25 | 160
5 | CCN(C(=O)c1cc(F)ccc1Oc1nncnc1N1CCC2(C1)CN([C@H](CCCN(C)CC(C)(C)O)C(C)C)C2)C(C)C [Compound 140, (R)-N-ethyl-5-fluoro-2-((5-(2-(6-((2-hydroxy-2-methylpropyl)(methyl)amino)-2-methylhexan-3-yl)-2,6-diazaspiro[3.4]octan-6-yl)-1,2,4-triazin-6-yl)oxy)-N-isopropylbenzamide fumarate] | 0.093 | 110 | 5750 | 28 | 330
6 | CCN(C(=O)c1cc(F)ccc1Oc1nncnc1N1CCC2(C1)CN([C@H](CCCN(C)CCCOC)C(C)C)C2)C(C)C [Compound 142, (R)-N-ethyl-5-fluoro-N-isopropyl-2-((5-(2-(6-((3-methoxypropyl)(methyl)amino)-2-methylhexan-3-yl)-2,6-diazaspiro[3.4]octan-6-yl)-1,2,4-triazin-6-yl)oxy)benzamide fumarate] | 0.071 | 12 | > 15000 | 51 | 220
7 | CCN(C(=O)c1cc(F)ccc1Oc1nncnc1N1CCC2(C1)CN([C@H](CCCN(C)CC(OC)OC)C(C)C)C2)C(C)C [Compound 150, (R)-2-((5-(2-(6-((2,2-dimethoxyethyl)(methyl)amino)-2-methylhexan-3-yl)-2,6-diazaspiro[3.4]octan-6-yl)-1,2,4-triazin-6-yl)oxy)-N-ethyl-5-fluoro-N-isopropylbenzamide fumarate] | 0.26 | 14 | 8700 | 13 | 160
8 | CCN(C(=O)c1cc(F)ccc1Oc1nncnc1N1CCC2(C1)CN([C@H](CCCN(C)CCCC(=O)N(C)C)C(C)C)C2)C(C)C [Compound 152, (R)-2-((5-(2-(6-((4-(dimethylamino)-4-oxobutyl)(methyl)amino)-2-methylhexan-3-yl)-2,6-diazaspiro[3.4]octan-6-yl)-1,2,4-triazin-6-yl)oxy)-N-ethyl-5-fluoro-N-isopropylbenzamide fumarate] | 0.19 | 37 | > 15000 | 87 | 350
9 | CCN(C(=O)c1cc(F)ccc1Oc1nncnc1N1CCC2(C1)CN([C@H](CCCN(C)[C@H](C)COC)C(C)C)C2)C(C)C [Compound 154, N-ethyl-5-fluoro-N-isopropyl-2-((5-(2-((R)-6-(((R)-1-methoxypropan-2-yl)(methyl)amino)-2-methylhexan-3-yl)-2,6-diazaspiro[3.4]octan-6-yl)-1,2,4-triazin-6-yl)oxy)benzamide fumarate] | 0.051 | 22 | > 15000 | 27 | 67
10 | CCN(C(=O)c1cc(F)ccc1Oc1nncnc1N1CCC2(C1)CN([C@H](CCCN(C)[C@@H](C)COC)C(C)C)C2)C(C)C [Compound 157, N-ethyl-5-fluoro-N-isopropyl-2-((5-(2-((R)-6-((S)-1-methoxypropan-2-yl)(methyl)amino)-2-methylhexan-3-yl)-2,6-diazaspiro[3.4]octan-6-yl)-1,2,4-triazin-6-yl)oxy)benzamide fumarate] | 0.12 | 21 | 13800 | 22 | 83
11 | CCN(C(=O)c1cc(F)ccc1Oc1nncnc1N1CCC2(C1)CN([C@H](CCCNC(COC)COC)C(C)C)C2)C(C)C [Compound 159, (R)-2-((5-(2-(6-((1,3-dimethoxypropan-2-yl)amino)-2-methylhexan-3-yl)-2,6-diazaspiro[3.4]octan-6-yl)-1,2,4-triazin-6-yl)oxy)-N-ethyl-5-fluoro-N-isopropylbenzamide fumarate] | 0.1 | 10 | 6300 | ~17 | 12
12 | CCN(C(=O)c1cc(F)ccc1Oc1nncnc1N1CCC2(C1)CN([C@H](CCCN[C@H](CO)COC)C(C)C)C2)C(C)C [Compound 162, N-ethyl-5-fluoro-2-((5-(2-((R)-6-(((R)-1-hydroxy-3-methoxypropan-2-yl)amino)-2-methylhexan-3-yl)-2,6-diazaspiro[3.4]octan-6-yl)-1,2,4-triazin-6-yl)oxy)-N-isopropylbenzamide] | 0.096 | 13 | > 15000 | ~19 | 26
13 | CCN(C(=O)c1cc(F)ccc1Oc1nncnc1N1CCC2(C1)CN([C@H](CCCN[C@@H](CO)COC)C(C)C)C2)C(C)C [Compound 163, N-ethyl-5-fluoro-2-((5-(2-((R)-6-(((S)-1-hydroxy-3-methoxypropan-2-yl)amino)-2-methylhexan-3-yl)-2,6-diazaspiro[3.4]octan-6-yl)-1,2,4-triazin-6-yl)oxy)-N-isopropylbenzamide] | 0.089 | 18 | > 15000 | 20 | 120
14 | CCN(C(=O)c1cc(F)ccc1Oc1nncnc1N1CCC2(C1)CN([C@H](CCCN(C)[C@H](CO)COC)C(C)C)C2)C(C)C [Compound 165, N-ethyl-5-fluoro-2-(5-(2-((R)-6-((R)-1-hydroxy-3-methoxypropan-2-yl)(methyl)amino)-2-methylhexan-3-yl)-2,6-diazaspiro[3.4]octan-6-yl)-1,2,4-triazin-6-yl)oxy)-N-isopropylbenzamide fumarate] | 0.06 | 30 | > 15000 | 23 | 99
15 | CCN(C(=O)c1cc(F)ccc1Oc1nncnc1N1CCC2(C1)CN([C@H](CCCN(C)[C@@H](CO)COC)C(C)C)C2)C(C)C [Compound 167, N-ethyl-5-fluoro-2-((5-(2-((R)-6-(((S)-1-hydroxy-3-methoxypropan-2-yl)(methyl)amino)-2-methylhexan-3-yl)-2,6-diazaspiro[3.4]octan-6-yl)-1,2,4-triazin-6-yl)oxy)-N-isopropylbenzamide fumarate] | 0.16 | 17 | > 15000 | 18 | 65
16 | CCN(C(=O)c1cc(F)ccc1Oc1nncnc1N1CCC2(C1)CN([C@H](CCCNCC(CO)OC)C(C)C)C2)C(C)C (stereo partly drawn) [Compound 168, N-ethyl-5-fluoro-2-((5-(2-((3R)-6-((3-hydroxy-2-methoxypropyl)amino)-2-methylhexan-3-yl)-2,6-diazaspiro[3.4]octan-6-yl)-1,2,4-triazin-6-yl)oxy)-N-isopropylbenzamide] | 0.1 | 49 | > 15000 | 74 | 370
17 | CCN(C(=O)c1cc(F)ccc1Oc1nncnc1N1CCC2(C1)CN([C@H](CCCN(C)CC(CO)OC)C(C)C)C2)C(C)C (stereo partly drawn) [Compound 170, N-ethyl-5-fluoro-2-((5-(2-((3R)-6-((3-hydroxy-2-methoxypropyl)(methyl)amino)-2-methylhexan-3-yl)-2,6-diazaspiro[3.4]octan-6-yl)-1,2,4-triazin-6-yl)oxy)-N-isopropylbenzamide fumarate] | 0.1 | 25 | > 15000 | 37 | 41
18 | CCN(C(=O)c1cc(F)ccc1Oc1nncnc1N1CCC2(C1)CN([C@H](CCCNCC(COC)OC)C(C)C)C2)C(C)C (stereo partly drawn) [Compound 172, 2-((5-(2-((3R)-6-((2,3-dimethoxypropyl)amino)-2-methylhexan-3-yl)-2,6-diazaspiro[3.4]octan-6-yl)-1,2,4-triazin-6-yl)oxy)-N-ethyl-5-fluoro-N-isopropylbenzamide fumarate] | 0.13 | 23 | 13400 | 13 | 38
